Assay results published in ChEMBL document CHEMBL3822358 (J Med Chem, 2016).
≈ marks a conversion by molar mass, not a printed value. Values belong to the compound of their own block, whether it stands above or below them. Calls of active or inactive are those of the source. No cut-off for these calls is given here.

Tests used:
Mus musculus [1] = test: Toxicity in SCID/beige mouse xenografted with human KARPAS299 cells expressing […] fusion protein at 50 mg/kg, po administered once daily for 13 days; assay type: organism-based, KARPAS-299; settings: in vivo, 312 h
Rattus norvegicus [2] = test: (§1) Half life in CD rat at 3 mg/kg, iv by LC-MS/MS analysis; assay type: ADME, organism-based; settings: in vivo
[3] = biological target: T1, ALK tyrosine kinase receptor (Homo sapiens, UniProt Q9UM73); test: Inhibition of ALK phosphorylation in mouse xenografted with human KARPAS299 cells assessed as p-ALK level at 25 mg/kg, po administered as single dose measured after 24 hrs relative to 2 hrs vehicle-treated tumor; assay type: organism-based; set-up: scale not given: the % may be the effect or the level left; settings: KARPAS-299
Target sequence in this assay (Q9UM73 19-1620 limits assumed): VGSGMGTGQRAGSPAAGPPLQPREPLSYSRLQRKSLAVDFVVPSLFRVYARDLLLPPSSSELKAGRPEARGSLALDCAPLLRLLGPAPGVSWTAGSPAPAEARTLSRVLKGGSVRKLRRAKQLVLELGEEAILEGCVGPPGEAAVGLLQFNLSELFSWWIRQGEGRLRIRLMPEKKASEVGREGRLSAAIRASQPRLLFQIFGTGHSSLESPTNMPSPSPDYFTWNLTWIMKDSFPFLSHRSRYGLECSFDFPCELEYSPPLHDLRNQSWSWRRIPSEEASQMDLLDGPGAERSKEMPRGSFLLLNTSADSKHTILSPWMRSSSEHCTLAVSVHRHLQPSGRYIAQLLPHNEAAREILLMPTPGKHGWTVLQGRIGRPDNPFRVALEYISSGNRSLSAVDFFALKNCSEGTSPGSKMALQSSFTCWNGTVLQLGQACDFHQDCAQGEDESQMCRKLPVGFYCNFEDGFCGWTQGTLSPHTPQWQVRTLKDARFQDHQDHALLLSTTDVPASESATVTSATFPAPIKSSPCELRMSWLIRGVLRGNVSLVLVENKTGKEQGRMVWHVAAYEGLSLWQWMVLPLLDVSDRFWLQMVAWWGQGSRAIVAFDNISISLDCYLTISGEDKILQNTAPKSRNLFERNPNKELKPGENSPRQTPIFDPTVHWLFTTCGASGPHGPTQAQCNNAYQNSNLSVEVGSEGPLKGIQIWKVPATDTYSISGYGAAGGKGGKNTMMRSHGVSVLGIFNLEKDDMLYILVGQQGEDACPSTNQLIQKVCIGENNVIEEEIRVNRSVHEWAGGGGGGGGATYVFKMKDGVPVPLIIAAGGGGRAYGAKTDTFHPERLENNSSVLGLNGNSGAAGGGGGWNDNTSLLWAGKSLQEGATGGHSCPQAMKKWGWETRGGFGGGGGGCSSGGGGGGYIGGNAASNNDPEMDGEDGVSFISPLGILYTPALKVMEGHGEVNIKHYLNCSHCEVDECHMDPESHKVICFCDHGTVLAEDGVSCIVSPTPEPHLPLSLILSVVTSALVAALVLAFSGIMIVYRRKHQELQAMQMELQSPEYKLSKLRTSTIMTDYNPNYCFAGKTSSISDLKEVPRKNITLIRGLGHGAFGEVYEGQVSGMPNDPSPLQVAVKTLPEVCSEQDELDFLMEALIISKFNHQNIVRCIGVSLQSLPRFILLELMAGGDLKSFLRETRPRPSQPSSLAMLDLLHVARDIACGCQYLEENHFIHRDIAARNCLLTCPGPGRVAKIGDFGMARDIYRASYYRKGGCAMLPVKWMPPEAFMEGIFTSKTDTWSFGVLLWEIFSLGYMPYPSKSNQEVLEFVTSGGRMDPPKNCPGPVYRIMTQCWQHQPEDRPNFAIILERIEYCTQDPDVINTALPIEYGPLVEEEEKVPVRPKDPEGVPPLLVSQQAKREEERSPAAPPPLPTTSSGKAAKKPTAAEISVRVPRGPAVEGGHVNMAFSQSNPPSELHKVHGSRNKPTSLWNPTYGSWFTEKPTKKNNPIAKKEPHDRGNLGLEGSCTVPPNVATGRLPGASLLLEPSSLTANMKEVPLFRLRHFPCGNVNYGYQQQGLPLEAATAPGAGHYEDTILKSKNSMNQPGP

[4] = biological target: Macrophage-stimulating protein receptor (Homo sapiens) (UniProt Q04912); test: Inhibition of human Ron using KKSRGDYMTMQIG as substrate and [gamma-33P]ATP measured up to 1 uM after 1 hr
[5] = Protein binding in mouse plasma; assay type: ADME, cell-free; settings: read-out: PPB (converted)
[6] = Cmax in mouse at 10 mg/kg, po by LC-MS/MS analysis; assay type: ADME, organism-based; set-up: dose 10 mg/kg, route oral; settings: in vivo
[7] = Half life in mouse at 10 mg/kg, po by LC-MS/MS analysis; assay type: ADME, organism-based; settings: in vivo
[8] = Half life in CD rat at 10 mg/kg, po by LC-MS/MS analysis; assay type: ADME, organism-based; settings: in vivo
Rattus norvegicus [9] = test: (§2) Volume of distribution at steady state in CD rat at 3 mg/kg, iv by LC-MS/MS analysis; assay type: ADME, organism-based; settings: in vivo
[10] = biological target: Insulin-like growth factor 1 receptor (Homo sapiens, UniProt P08069)
[11] = AUC (0 to 24 hrs) in mouse at 10 mg/kg, po by LC-MS/MS analysis; assay type: ADME, organism-based; set-up: time < 24 hr, dose 10 mg/kg, route oral; settings: in vivo
animal or person [12] = settings: Homo sapiens, KARPAS-299, po, 312 h, read-out: TGI
Description: Antitumor activity against human KARPAS299 cells expressing NMP-ALK fusion protein xenografted in SCID/beige mouse assessed as tumor growth inhibition at 10 mg/kg, po administered once daily for 13 days relative to untreated control

animal or person [13] = settings: Homo sapiens, KARPAS-299, po, 312 h, read-out: TGI; remark: listed apart in the source
Description: Antitumor activity against human KARPAS299 cells expressing NMP-ALK fusion protein xenografted in SCID/beige mouse assessed as tumor growth inhibition at 25 mg/kg, po administered once daily for 13 days relative to untreated control

Homo sapiens [14] = species: Homo sapiens; test: Inhibition of human EML4/ALK F1174C/V mutant
[15] = biological target: Hepatocyte growth factor receptor (Homo sapiens) (UniProt P08581); test: Inhibition of human c-Met using [KKKSPGEYVNIEFG as substrate and [gamma-33P]ATP up to 1 uM measured after 1 hr
KARPAS-299 [16] = test: Antitumor activity against human KARPAS299 cells expressing […] fusion protein xenografted in SCID/beige mouse assessed as tumor regression at 50 mg/kg, po administered once daily for 13 days; assay type: functional, organism-based
animal or person [17] = settings: Homo sapiens, KARPAS-299, po, 312 h, read-out: TGI; remark: listed apart in the source
Description: Antitumor activity against human KARPAS299 cells expressing NMP-ALK fusion protein xenografted in SCID/beige mouse assessed as tumor growth inhibition at 50 mg/kg, po administered once daily for 13 days relative to untreated control

[18] = biological target: T1, ALK tyrosine kinase receptor; test: Inhibition of ALK phosphorylation in mouse xenografted with human KARPAS299 cells assessed as p-ALK level at 25 mg/kg, po administered as single dose measured after 16 hrs relative to 2 hrs vehicle-treated tumor; assay type: organism-based; set-up: scale not given: the % may be the effect or the level left; settings: KARPAS-299
Target sequence in this assay (Q9UM73 19-1620 limits assumed): as above

[19] = AUC (0 to infinity) in CD rat at 10 mg/kg, po by LC-MS/MS analysis; assay type: ADME, organism-based; set-up: dose 10 mg/kg, route oral, time infinity; settings: in vivo
cells [20] = settings: Homo sapiens, KARPAS-299, 72 h
Description: Antiproliferative activity against human ALK-positive KARPAS299 cells assessed as reduction in cell viability measured after 72 hrs by CellTiter 96 aqueous one solution cell proliferation assay

Mus musculus [21] = test: Toxicity in SCID/beige mouse xenografted with human NCI-H3122 cells assessed as body weight loss at 10 to 50 mg/kg, po administered once daily for 19 days relative to vehicle-treated control; assay type: organism-based; settings: in vivo, 456 h
[22] = Oral bioavailability in CD rat at 10 mg/kg by LC-MS/MS analysis; assay type: ADME, organism-based; settings: in vivo
[23] = Tmax in CD rat at 10 mg/kg, po by LC-MS/MS analysis; assay type: ADME, organism-based; settings: in vivo
[24] = Cmax in CD rat at 10 mg/kg, po by LC-MS/MS analysis; assay type: ADME, organism-based; set-up: dose 10 mg/kg, route oral; settings: in vivo
cells [25] = settings: Homo sapiens, U-937, 72 h
Description: Antiproliferative activity against human ALK-negative U937 cells assessed as reduction in cell viability measured after 72 hrs by CellTiter 96 aqueous one solution cell proliferation assay

[26] = Aqueous solubility of the compound at physiological pH; assay type: physicochemical; settings: buffer
KARPAS-299 [27] = test: Antitumor activity against human KARPAS299 cells xenografted in SCID/beige mouse assessed as tumor growth inhibition administered orally once daily for 13 days relative to untreated control; assay type: functional, cell-based
[28] = Protein binding in rat plasma; assay type: ADME, cell-free; settings: read-out: PPB (converted)
[29] = biological target: T1, ALK tyrosine kinase receptor; test: Inhibition of ALK phosphorylation in mouse xenografted with human KARPAS299 cells assessed as p-ALK level at 25 mg/kg, po administered as single dose measured after 10 hrs relative to 2 hrs vehicle-treated tumor; assay type: organism-based; set-up: scale not given: the % may be the effect or the level left; settings: KARPAS-299
Target sequence in this assay (Q9UM73 19-1620 limits assumed): as above

Homo sapiens [30] = species: Homo sapiens; test: Inhibition of human EML4/ALK […] mutant
Insulin receptor = Insulin receptor (Homo sapiens, UniProt P06213)
Description: Inhibition of human InsR using myelin basic protein as substrate and [gamma-33P]ATP measured after 1 hr

Homo sapiens [31] = species: Homo sapiens; test: Inhibition of human EML4/ALK I1171N mutant
NCI-H3122 = test: Antitumor activity against human NCI-H3122 cells expressing EML4-ALK fusion protein xenografted in SCID/beige mouse assessed as tumor regression compound administered as once-daily oral dose for 19 days; assay type: functional, cell-based
[32] = Lipophilicity, logD of the compound at pH 7; assay type: physicochemical; settings: buffer
[33] = Protein binding in human plasma; assay type: ADME, cell-free; settings: read-out: PPB (converted)
Rattus norvegicus [34] = test: (§3) AUC (0 to infinity) in CD rat at 3 mg/kg, iv by LC-MS/MS analysis; assay type: ADME, organism-based; set-up: dose 3 mg/kg, time infinity, route intravenous; settings: in vivo
[35] = as §1; assay type: ADME, organism-based; settings: CD, in vivo
[36] = as §2; assay type: ADME, organism-based; settings: CD, in vivo, read-out: Vdss
[37] = biological target: T1, ALK tyrosine kinase receptor
Description: Inhibition of human ALK using poly[Glu:Tyr] (4:1) as substrate and [gamma-33P]ATP measured after 1 hr

[38] = Clearance in CD rat at 3 mg/kg, iv by LC-MS/MS analysis; assay type: ADME, organism-based; settings: in vivo
[39] = as §3; assay type: ADME, organism-based; set-up: dose 3 mg/kg, time infinity, route intravenous; settings: CD, in vivo
KARPAS-299 [40] = test: Antitumor activity against human KARPAS299 cells expressing […] fusion protein xenografted in SCID/beige mouse assessed as tumor stasis at 50 mg/kg, po administered once daily for 13 days; assay type: functional, organism-based

Chain of Insulin receptor (P06213 28-758 limits assumed): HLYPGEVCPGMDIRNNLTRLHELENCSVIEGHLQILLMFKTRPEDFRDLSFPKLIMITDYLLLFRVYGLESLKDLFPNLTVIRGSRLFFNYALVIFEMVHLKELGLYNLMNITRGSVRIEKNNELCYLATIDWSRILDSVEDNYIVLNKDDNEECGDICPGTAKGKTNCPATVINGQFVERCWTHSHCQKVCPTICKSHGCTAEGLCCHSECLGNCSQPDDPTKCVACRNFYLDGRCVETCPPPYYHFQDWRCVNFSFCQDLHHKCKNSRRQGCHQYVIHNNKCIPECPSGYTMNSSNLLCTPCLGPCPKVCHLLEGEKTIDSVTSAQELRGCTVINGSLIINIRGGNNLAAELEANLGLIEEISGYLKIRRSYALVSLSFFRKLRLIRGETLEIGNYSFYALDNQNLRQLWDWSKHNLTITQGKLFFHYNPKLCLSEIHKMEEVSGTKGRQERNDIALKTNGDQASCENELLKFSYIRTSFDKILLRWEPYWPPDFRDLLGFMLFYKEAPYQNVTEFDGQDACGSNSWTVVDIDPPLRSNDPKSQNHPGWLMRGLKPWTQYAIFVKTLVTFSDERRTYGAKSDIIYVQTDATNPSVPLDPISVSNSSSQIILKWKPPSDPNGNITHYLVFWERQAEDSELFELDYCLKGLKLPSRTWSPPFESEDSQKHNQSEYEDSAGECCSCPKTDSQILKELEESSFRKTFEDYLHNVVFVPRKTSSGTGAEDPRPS
Chain of Insulin receptor (P06213 763-1382 limits assumed): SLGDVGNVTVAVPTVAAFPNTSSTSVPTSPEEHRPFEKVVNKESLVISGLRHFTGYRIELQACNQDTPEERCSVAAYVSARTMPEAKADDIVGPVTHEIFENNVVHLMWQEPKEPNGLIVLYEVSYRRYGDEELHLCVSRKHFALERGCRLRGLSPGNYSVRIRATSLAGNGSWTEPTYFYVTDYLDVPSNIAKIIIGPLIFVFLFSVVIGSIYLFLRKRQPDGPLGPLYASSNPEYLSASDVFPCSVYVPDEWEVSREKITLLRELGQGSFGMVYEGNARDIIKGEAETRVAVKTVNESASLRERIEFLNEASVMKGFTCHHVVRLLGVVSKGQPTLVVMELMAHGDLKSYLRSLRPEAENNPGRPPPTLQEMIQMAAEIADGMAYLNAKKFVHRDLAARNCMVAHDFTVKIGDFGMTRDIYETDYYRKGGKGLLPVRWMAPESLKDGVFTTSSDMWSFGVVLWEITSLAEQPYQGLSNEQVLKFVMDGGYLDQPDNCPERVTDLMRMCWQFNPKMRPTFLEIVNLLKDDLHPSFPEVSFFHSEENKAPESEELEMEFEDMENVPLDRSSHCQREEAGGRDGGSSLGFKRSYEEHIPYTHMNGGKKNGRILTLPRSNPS
Chain of Insulin-like growth factor 1 receptor (P08069 31-736 limits assumed): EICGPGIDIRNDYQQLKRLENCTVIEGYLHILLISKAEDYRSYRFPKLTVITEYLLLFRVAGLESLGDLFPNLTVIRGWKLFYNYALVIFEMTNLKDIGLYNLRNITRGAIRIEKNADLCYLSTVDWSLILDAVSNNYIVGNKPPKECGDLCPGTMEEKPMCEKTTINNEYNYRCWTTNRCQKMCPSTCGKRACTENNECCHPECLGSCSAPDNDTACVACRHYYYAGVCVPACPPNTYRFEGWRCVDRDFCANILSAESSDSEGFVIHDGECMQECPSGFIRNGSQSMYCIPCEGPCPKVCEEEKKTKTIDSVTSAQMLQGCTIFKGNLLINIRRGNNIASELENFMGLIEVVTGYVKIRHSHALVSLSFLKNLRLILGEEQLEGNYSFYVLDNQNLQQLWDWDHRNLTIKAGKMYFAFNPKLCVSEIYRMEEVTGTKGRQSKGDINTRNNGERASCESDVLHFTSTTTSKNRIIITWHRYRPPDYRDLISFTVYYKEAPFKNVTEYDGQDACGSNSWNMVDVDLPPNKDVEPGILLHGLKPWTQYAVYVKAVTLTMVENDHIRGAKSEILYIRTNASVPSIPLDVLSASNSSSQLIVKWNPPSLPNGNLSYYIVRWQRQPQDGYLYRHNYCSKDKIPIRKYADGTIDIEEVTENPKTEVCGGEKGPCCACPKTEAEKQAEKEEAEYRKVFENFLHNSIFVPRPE
Chain of Insulin-like growth factor 1 receptor (P08069 741-1367 limits assumed): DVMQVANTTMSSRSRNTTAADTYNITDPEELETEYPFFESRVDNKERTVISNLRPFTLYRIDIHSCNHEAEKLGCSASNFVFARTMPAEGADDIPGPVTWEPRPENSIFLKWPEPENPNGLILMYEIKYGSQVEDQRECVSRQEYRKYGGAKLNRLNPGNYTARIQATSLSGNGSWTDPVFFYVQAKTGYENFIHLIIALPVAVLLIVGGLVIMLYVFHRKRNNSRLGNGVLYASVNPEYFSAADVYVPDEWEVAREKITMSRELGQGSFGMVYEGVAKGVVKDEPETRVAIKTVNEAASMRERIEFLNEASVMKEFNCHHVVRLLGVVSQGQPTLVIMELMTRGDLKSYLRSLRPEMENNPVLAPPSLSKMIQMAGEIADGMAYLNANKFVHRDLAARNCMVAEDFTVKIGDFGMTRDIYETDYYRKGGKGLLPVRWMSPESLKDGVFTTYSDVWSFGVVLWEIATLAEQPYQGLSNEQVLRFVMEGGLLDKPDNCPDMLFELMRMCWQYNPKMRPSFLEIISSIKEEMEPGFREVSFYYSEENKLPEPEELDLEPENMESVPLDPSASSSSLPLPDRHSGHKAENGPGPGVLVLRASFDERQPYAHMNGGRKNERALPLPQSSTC

t1/2 (Rattus norvegicus [2]): 4.8 h
Activity [3]: 39%
inhibition [4]: inactive
fraction unbound [5]: 0.36
Cmax [6]: 448 ng/mL
half-life [7]: 5.8 h
half-life [8]: 3.4 h
Vdss (Rattus norvegicus [9]): 7.8 L/kg
IC50 [10]: 24.9 nM
AUC(0-t) at 24 h [11]: 5770 ng·h/mL
inhibition (Homo sapiens [14]): Active
inhibition [15]: inactive
Activity [18]: 7%
AUC(0-inf) [19]: 3950 ng·h/mL
IC50 (cells [20]): 29 nM
bioavailability [22]: 52%
Tmax [23]: 4 h
Cmax [24]: 305 ng/mL
IC50 (cells [25]): 3190 nM
solubility [26]: 337 µg/mL (≈ 577 µM)
fraction unbound [28]: 0.27
Activity [29]: 1%
inhibition (Homo sapiens [30]): Active
IC50 (Insulin receptor): 196 nM
inhibition (Homo sapiens [31]): Active
logD [32]: 3.02
fraction unbound [33]: 0.34
AUC (Rattus norvegicus [34]): 2268 ng·h/mL
Compound: COc1cc(N2CCC(N3CCN(C)CC3)CC2)ccc1Nc1ncc(Cl)c(Nc2ccccc2P(C)(C)=O)n1 [BRIGATINIB]
Activity (Mus musculus [1]): Non-toxic
inhibition in vivo at 10 mg/kg (animal or person [12]): 50%
inhibition in vivo at 25 mg/kg (animal or person [13]): 12%
Activity (KARPAS-299 [16]): Active
inhibition in vivo at 50 mg/kg (animal or person [17]): -11%
GI50 (cells [20]): 10 nM
Activity (Mus musculus [21]): Non-toxic
TGI (KARPAS-299 [27]): Dose-dependent effect
Activity (NCI-H3122): Dose-dependent effect

half-life [35]: 4 h
Activity [3]: 118%
Cmax [6]: 421 ng/mL
half-life [7]: 5 h
half-life [8]: 2.5 h
Vd [36]: 8.55 L/kg
IC50 [10]: 8.2 nM
AUC(0-t) at 24 h [11]: 3450 ng·h/mL
Activity [18]: 69%
IC50 [37]: 0.38 nM
AUC(0-inf) [19]: 5670 ng·h/mL
IC50 (cells [20]): 19.2 nM
bioavailability [22]: 110%
Tmax [23]: 4 h
Cmax [24]: 601 ng/mL
IC50 (cells [25]): 3560 nM
Activity [29]: 1%
IC50 (Insulin receptor): 57.2 nM
clearance [38]: 31.8 mL/min/kg
AUC(0-inf) [39]: 1550 ng·h/mL
Compound: COc1cc(C2CCN(C)CC2)ccc1Nc1ncc(Cl)c(Nc2ccccc2P(C)(C)=O)n1

half-life [35]: 3.6 h
Activity [3]: 104%
Cmax [6]: 498 ng/mL
half-life [7]: 3.1 h
half-life [8]: 3.4 h
Vd [36]: 1.46 L/kg
IC50 [10]: 31.6 nM
AUC(0-t) at 24 h [11]: 6490 ng·h/mL
Activity [18]: 60%
IC50 [37]: 0.88 nM
AUC(0-inf) [19]: 4570 ng·h/mL
IC50 (cells [20]): 29.9 nM
bioavailability [22]: 16%
Tmax [23]: 6 h
Cmax [24]: 353 ng/mL
IC50 (cells [25]): 2720 nM
Activity [29]: 13%
IC50 (Insulin receptor): 130 nM
clearance [38]: 5.83 mL/min/kg
AUC(0-inf) [39]: 8620 ng·h/mL
Compound: COc1cc(N2CCC(CN3CCC3)CC2)ccc1Nc1ncc(Cl)c(Nc2ccccc2P(C)(C)=O)n1

half-life [35]: 6.6 h
Activity [3]: 94%
Cmax [6]: 418 ng/mL
half-life [7]: 2.7 h
half-life [8]: 12.5 h
Vd [36]: 6.12 L/kg
IC50 [10]: 20.3 nM
AUC(0-t) at 24 h [11]: 5180 ng·h/mL
Activity [18]: 14%
IC50 [37]: 0.18 nM
AUC(0-inf) [19]: 4060 ng·h/mL
IC50 (cells [20]): 28.3 nM
bioavailability [22]: 39%
Tmax [23]: 6 h
Cmax [24]: 254 ng/mL
IC50 (cells [25]): 1590 nM
Activity [29]: 2%
IC50 (Insulin receptor): 90.6 nM
clearance [38]: 15.2 mL/min/kg
AUC(0-inf) [39]: 3090 ng·h/mL
Compound: COc1cc(N2CCN(C)CC2)ccc1Nc1ncc(Cl)c(Nc2ccccc2P(C)(C)=O)n1
Activity (Mus musculus [1]): Non-toxic
inhibition in vivo at 10 mg/kg (animal or person [12]): 81%
inhibition in vivo at 25 mg/kg (animal or person [13]): 41%
inhibition in vivo at 50 mg/kg (animal or person [17]): 1.4%
Activity (KARPAS-299 [40]): Active
TGI (KARPAS-299 [27]): Dose-dependent effect
